Data reported in patent US20180153168A1, “A PRIMER FOR PESTICIDES” (PANGAEA AGROCHEMICALS LIMITED, priority 2015, published 2018).
Read-outs that look alike come from different tables or passages of the source.

Columns and labels:
[1] = test system: glyphosate resistant strain of Italian ryegrass; assay: Control of glyphosate resistant Italian ryegrass, piperonyl butoxide pre-treatment then glyphosate (Western Australia); type: in vivo; conditions: glyphosate without piperonyl butoxide; 8 replicated trials; FIG. 1
plants = conditions: applied alone, in the absence of any active ingredients; cited from earlier work
plant crop = conditions: optimised dose rate
Protocol: Preferably, the time delay is from 1 to 24 hours, preferably from 2 to 8 hours. However, the time delay required varies with temperature and dose rate. […] (these time delays assume an optimised dose rate).

white fly = conditions: with insecticides
[2] = test system: clodinafop resistant strains of blackgrass
Protocol: Further experiments were carried out using clodinafop resistant strains of blackgrass.
Daytime temperature of 11° C. Night time temperature of 8° C.

pollen beetle = conditions: with insecticides
[3] = piperonyl butoxide 320 grams per ha then clodinafop 250 g ai/ha, daytime 11° C., night 8° C., FIG. 9

Q: With O=C(O)CNCP(=O)(O)O [glyphosate] as the compound, how does the level of control [1] read?
A: The level of control was “minimal”.

Q: Which toxicity to plants (plants) does the source give for CCCCOCCOCCOCc1cc2c(cc1CCC)OCO2 [piperonyl butoxide] here?
A: Its toxicity to plants is “not detectable”.

Q: And the optimum time delay (plant crop; 11° C.)?
A: Its optimum time delay is 8 h.

Q: What about the optimum time delay (plant crop; 15° C.) of the same compound?
A: Its optimum time delay is 4 h.

Q: And the optimum time delay (plant crop; 25° C.)?
A: Its optimum time delay is 2.5 h.

Q: What about the “optimum delay for application” value (white fly) of the same compound?
A: Its value is roughly 8 h.

Q: And the optimum delay ([2]; early autumn trials, ambient temperature of the order of 18° C.)?
A: Its optimum delay is 2 to 8 h.

Q: And the “delays showing high levels of control” value [2, 3]?
A: The value was 8 to 16 h.

Q: And the “optimum delay for efficacy” value [2, 3]?
A: Its value is “approximately 8 hours”.

Q: What about the “optimum delay for application” value (pollen beetle) of the same compound?
A: The value was “approximately 1 hour”.
